Here are results for six compounds from ChEMBL document CHEMBL4699525, “Design and synthesis of new indanol-1,2,3-triazole derivatives as potent antitubercular and antimicrobial agents” (Bioorg Med Chem Lett, 2020).

One assay relates to Pseudomonas aeruginosa. Kind of assay: Antibacterial activity against Pseudomonas aeruginosa assessed as inhibition of bacterial growth incubated for 24 hrs by agar well diffusion method. Also: test concentration or dose not given here. It counts as functional. (A growth-free zone around the sample is the usual read-out of agar diffusion tests.)
For the next assay, the system named is Aspergillus niger. Kind of assay: Antifungal activity against Aspergillus niger assessed as inhibition of fungal growth incubated for 24 hrs by agar well diffusion method. Also: test concentration or dose not given here. The format is functional.
For the next assay, the system named is Saccharomyces cerevisiae. The assay can be described thus: Antifungal activity against Saccharomyces cerevisiae assessed as inhibition of fungal growth incubated for 24 hrs by agar well diffusion method. Also: test concentration or dose not given here. The format is functional.
The subject of assay [1] is Salmonella enterica subsp. enterica serovar Abony. Kind of assay: Antibacterial activity against Salmonella abony assessed as inhibition of bacterial growth incubated for 24 hrs by agar well diffusion method. Also: test concentration or dose not given here. It counts as functional.
Another assay concerns Shigella boydii. The assay can be described thus: Antibacterial activity against Shigella boydii assessed as inhibition of bacterial growth incubated for 24 hrs by agar well diffusion method. As to DIZ: test concentration or dose not given here. It counts as functional.
For a further assay, the system named is Candida albicans. The assay can be described thus: Antifungal activity against Candida albicans assessed as inhibition of fungal growth incubated for 24 hrs by agar well diffusion method. As to DIZ: test concentration or dose not given here. It counts as functional.
A further assay relates to Bacillus cereus. The assay can be described thus: Antibacterial activity against Bacillus cereus assessed as inhibition of bacterial growth incubated for 24 hrs by agar well diffusion method. Also: test concentration or dose not given here. It counts as functional.
The next assay deals with Bacillus subtilis. The assay can be described thus: Antibacterial activity against Bacillus subtilis assessed as inhibition of bacterial growth incubated for 24 hrs by agar well diffusion method. Also: test concentration or dose not given here. The format is functional.
Another assay has as its system Staphylococcus aureus. Kind of assay: Antibacterial activity against Staphylococcus aureus assessed as inhibition of bacterial growth incubated for 24 hrs by agar well diffusion method. Also: test concentration or dose not given here. It counts as functional.
In another assay the test system is Salmonella typhi. Kind of assay: Antibacterial activity against Salmonella typhi assessed as inhibition of bacterial growth incubated for 24 hrs by agar well diffusion method. Particulars: Salmonella enterica subsp. enterica serovar Typhi. It counts as functional.
Assay [2] addresses T1, Enoyl-[acyl-carrier-protein] reductase [NADH] (Mycobacterium tuberculosis) (UniProt P9WGR1).
T1 sequence (whole entry): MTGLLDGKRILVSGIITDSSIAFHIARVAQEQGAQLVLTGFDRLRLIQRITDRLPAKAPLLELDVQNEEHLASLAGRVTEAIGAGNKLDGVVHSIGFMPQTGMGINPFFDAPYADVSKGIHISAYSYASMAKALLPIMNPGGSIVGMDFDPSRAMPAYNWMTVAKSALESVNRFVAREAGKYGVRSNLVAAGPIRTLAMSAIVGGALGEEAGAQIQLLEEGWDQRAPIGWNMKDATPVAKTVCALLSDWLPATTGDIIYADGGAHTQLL
The assay can be described thus: Inhibition of InhA in Mycobacterium tuberculosis H37Rv assessed antitubercular activity by measuring inhibition of bacterial growth incubated for 7 days by MABA assay. The note with it: time 7.0 day. In general terms: Resazurin is reduced to fluorescent resorufin, in cell work by metabolically active cells.

The next assay relates to Escherichia coli. Kind of assay: Antibacterial activity against Escherichia coli assessed as inhibition of bacterial growth incubated for 24 hrs by agar well diffusion method. Also: test concentration or dose not given here. It counts as functional.
A further assay has as its system Klebsiella aerogenes. Kind of assay: Antibacterial activity against Enterobacter aerogenes assessed as inhibition of bacterial growth incubated for 24 hrs by agar well diffusion method. Also: test concentration or dose not given here. The format is functional.

Calls of active or inactive are those of the source. The rule behind the calls is not given here.

On to `COc1cccc(NC(=O)Cn2cc(COc3ccc4c(c3)CCC4)nn2)c1`, for which the “diameter of the inhibition zone (DIZ)” value (in the assay with Pseudomonas aeruginosa; in the assay on Aspergillus niger; with Saccharomyces cerevisiae; in assay [1]; in the assay on Candida albicans; in the assay on Bacillus cereus) was “inactive” throughout. Also, the “diameter of the inhibition zone (DIZ)” value with Bacillus subtilis, in the assay on Staphylococcus aureus, in the assay on Salmonella typhi, with Escherichia coli and in the assay on Klebsiella aerogenes was “inactive” throughout. Further, in the assay on Shigella boydii, the “diameter of the inhibition zone (DIZ)” value came out at 15 mm. The same compound gave an MIC in [2] above 25 µM.

Turning to `Brc1ccc(-n2cc(COc3ccc4c(c3)CCC4)nn2)cc1`, the “diameter of the inhibition zone (DIZ)” value (with Pseudomonas aeruginosa; with Aspergillus niger; in [1]; in the assay on Shigella boydii; in the assay on Bacillus cereus; in the assay on Bacillus subtilis) was “inactive” in each case. Further, the “diameter of the inhibition zone (DIZ)” value in the assay with Staphylococcus aureus, in the assay on Salmonella typhi and with Klebsiella aerogenes was “inactive” throughout. For the same compound, the “diameter of the inhibition zone (DIZ)” value in the assay on Saccharomyces cerevisiae stood at 7 mm; with Candida albicans, 11 mm; with Escherichia coli, 8 mm. In assay [2], this compound showed an MIC above 25 µM.

Take `O=C(Cn1cc(COc2ccc3c(c2)CCC3)nn1)Nc1ccc(F)cc1`: the “diameter of the inhibition zone (DIZ)” value (in the assay with Pseudomonas aeruginosa; with Aspergillus niger; in the assay with Saccharomyces cerevisiae; in assay [1]; in the assay on Bacillus cereus; in the assay on Bacillus subtilis) was “inactive” in each case. Besides, the “diameter of the inhibition zone (DIZ)” value in the assay on Salmonella typhi, with Escherichia coli and in the assay with Klebsiella aerogenes was “inactive” throughout. The entries for the “diameter of the inhibition zone (DIZ)” value with Shigella boydii, with Candida albicans and with Staphylococcus aureus were 11 mm, 13 mm and 13 mm, respectively. Also, the MIC in [2] is above 25 µM.

On to `Cc1ccc(NC(=O)Cn2cc(COc3ccc4c(c3)CCC4)nn2)c(C)c1`, for which the “diameter of the inhibition zone (DIZ)” value (in the assay with Pseudomonas aeruginosa; in the assay on Aspergillus niger; in the assay on Saccharomyces cerevisiae; in [1]; with Candida albicans; in the assay on Bacillus cereus) was “inactive” each time. The “diameter of the inhibition zone (DIZ)” value in the assay with Bacillus subtilis, in the assay with Staphylococcus aureus, with Salmonella typhi, in the assay with Escherichia coli and with Klebsiella aerogenes was “inactive” throughout. Moreover, the “diameter of the inhibition zone (DIZ)” value in the assay on Shigella boydii stood at 13 mm. For the same compound, the MIC in [2] is above 25 µM.

For the compound `Cc1ccc(NC(=O)Cn2cc(COc3ccc4c(c3)CCC4)nn2)cc1`, the “diameter of the inhibition zone (DIZ)” value (in the assay on Pseudomonas aeruginosa; in the assay with Aspergillus niger; in the assay on Saccharomyces cerevisiae; in assay [1]; with Shigella boydii; in the assay with Bacillus cereus) was “inactive” throughout. Further, the “diameter of the inhibition zone (DIZ)” value in the assay on Bacillus subtilis, in the assay with Salmonella typhi, with Escherichia coli and with Klebsiella aerogenes was “inactive” in each case. Further, the “diameter of the inhibition zone (DIZ)” value was determined as 12 mm with Candida albicans and 8 mm with Staphylococcus aureus. Moreover, the MIC in assay [2] is above 25 µM.

Regarding `CCc1ccc(-n2cc(COc3ccc4c(c3)CCC4)nn2)cc1`, the “diameter of the inhibition zone (DIZ)” value (in the assay with Pseudomonas aeruginosa; with Aspergillus niger; in assay [1]; in the assay on Shigella boydii; with Bacillus cereus; in the assay with Bacillus subtilis) was “inactive” throughout. For the same compound, the “diameter of the inhibition zone (DIZ)” value with Salmonella typhi, with Escherichia coli and in the assay with Klebsiella aerogenes was “inactive” each time. In addition, the entries for the “diameter of the inhibition zone (DIZ)” value with Candida albicans and with Staphylococcus aureus were 13 mm and 7 mm, respectively. Besides, the MIC in assay [2] was above 25 µM.
